Tests used:
rat cardiac allografts [1] = experiment: Rat cardiac allograft study, Allograft Study 4 (Table 22);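 note: heterotopic abdominal heart transplants from Lewis × Brown Norway F1 donors into male Lewis rats, graft beating checked daily by flank palpation, rejection defined as complete stop of heartbeat, transplant day 0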; settings: 30 mg/kg s.c. every 12 h, day -2 to +10
Description: Hearts from Lewis X Brown Norway F1 hybrids were transplanted to the abdominal great vessels of Lewis recipients using standard microvascular techniques. Both rat strains were male inbred rats, weighing 200-300 g. Food and water was available at all times except during surgical and dosing procedures. The day of transplantation was noted as day 0. Twelve hours following the last dose approximately 1 ml of blood was collected into lithium/heparin anti-coagulant tubes. If any graft was rejected prior to the last day of dosing, blood samples were taken 12 hours after dosing on the day that graft rejection was noted. All blood samples were centrifuged at 3000 rpm for 10 minutes and the plasma was harvested, frozen on dry ice and stored frozen at −20 C prior to analysis. Allograft survival in the rats was evaluated by daily palpation of the transplanted heart through the recipient's flank. Rejection was taken as the day of complete cessation of the graft's heart beat. Upon determination of rejection, the abdomen of the recipient was incised and retracted to confirm cessation of the heart beat in the transplanted heart. If cessation of the heart beat was not confirmed the abdomen was surgically closed, and the grafted heart was evaluated daily.
Cardiac allografts were established. Dosing of compounds began on day −2, 2 days prior to transplantation and continued through day +10. […] The vehicle control, 0.9% saline, pH adjusted to a value of 5, to match the dosing solution containing the N-[N-(3-pyridinesulfonyl)-L-3,3-dimethyl-4-thiaprolyl]-0-[1-methylpiperazin-4-ylcarbonyl]-L-tyrosine isopropyl ester, was administered via the same route, i.e. every 12 hours, day −2 through day +10. The antibody, GG5/3 in 0.9% saline, was administered at 3 mg/kg, s.c., on day 0, +3, +7 and +10. All GG5/3 animals received twice daily s.c. injections of 0.9% saline, every 12 hours, from day −2 through day +10. The vehicle control, 0.9% saline, was administered daily, s.c., day 0 through day +10. All dosing solutions were formulated daily at a constant dose volume of 5 ml/kg. The site of injection was rotated at each injection through four possible sites: right and left fore flank, right and left rear flank. A total of 21 allografts, amongst 5 groups, were evaluated in the study. […] Two animals within the 0.9% saline group received saline adjusted to a pH a value of 5. (The pH value of the N-[N-(3-pyridinesulfonyl)-L-3,3-dimethyl-4-thiaprolyl]-0-[1-methylpiperazin-4-ylcarbonyl]-L-tyrosine isopropyl ester dosing solution.) The remaining two animals received saline of pH 7. Group 2 consisted of 6 animals treated with the monoclonal antibody, GG5/3. […] Twelve hours following the last dose approximately 1 ml of blood was collected into lithium/heparin anti-coagulant tubes. If any graft was rejected prior to the last day of dosing, blood samples were taken 12 hours after dosing on the day that graft rejection was noted. All samples were centrifuged at 3000 rpm for 10 minutes and the plasma was harvested, frozen on dry ice and stored frozen at −20 C prior to dispatch for analysis. Allograft survival in the rats was evaluated by daily palpation of the transplanted heart through the recipient's flank. Rejection was taken as the day of complete cessation of graft's heart beat. Upon determination of rejection, the abdomen of the recipient was incised to confirm cessation of the heart beat in the transplanted heart. If cessation of the heart beat was not confirmed the abdomen was surgically closed, and the graft was evaluated daily.

rat cardiac allografts [2] = experiment: Rat cardiac allograft study, Allograft Study 3 (Table 21); type: in vivo; settings: for number of surviving grafts within each group / percent of surviving grafts within a group: s.c., GG5/3 3 mg/kg, compound 30 mg/kg
Description: Cardiac allografts were established. […] A total of 20 allografts, amongst 4 groups, were evaluated in the study.

rat cardiac allografts [3] = experiment: Rat cardiac allograft study, Allograft Study 2 (Table 20); settings: for number of surviving grafts within each group: s.c., GG5/3 3 mg/kg, compounds 30 mg/kg;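 for all read-outs here: lewis x Brown Norway F1 hearts grafted abdominally into male Lewis rats, palpated daily, rejection meaning complete loss of heartbeat, day 0 being surgery day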
Description: Hearts from Lewis X Brown Norway F1 hybrids were transplanted to the abdominal great vessels of Lewis recipients using standard microvascular techniques. Both rat strains were male inbred rats, weighing 200-300 g. Food and water was available at all times except during surgical and dosing procedures. The day of transplantation was noted as day 0. […] Allograft survival in the rats was evaluated by daily palpation of the transplanted heart through the recipient's flank. Rejection was taken as the day of complete cessation of the graft's heart beat. Upon determination of rejection, the abdomen of the recipient was incised and retracted to confirm cessation of the heart beat in the transplanted heart. If cessation of the heart beat was not confirmed the abdomen was surgically closed, and the grafted heart was evaluated daily.
Cardiac allografts were established. Dosing of compounds began on day 0, prior to transplantation and continued through day +10. […] The vehicle control, 10% ethanol/corn oil, was administered s.c., every 12 hours, day 0 through day +10. The antibody, GG5/3 in 0.9% saline, was administered at 3 mg/kg, s.c., on day 0, +3, +7 and +10. All GG5/3 animals received twice daily s.c. injections of 0.9% saline, every 12 hours, throughout day 0 through day +10. The vehicle control, 0.9% saline, was administered daily, s.c., day 0 through day +10. All dosing solutions were formulated daily at a constant dose volume of 5 ml/kg. The site of injection was rotated at each injection through four possible sites: right and left fore flank, right and left rear flank. A total of 28 allografts, amongst 5 groups, were evaluated in the study. Group 1, consisted of 6 animals treated with the monoclonal antibody, GG5/3. […] Allograft survival was evaluated by daily palpation of the transplanted heart through the recipient's flank. Rejection was taken as the day of complete cessation of graft's heart beat. Upon determination of rejection, the abdomen of the recipient was incised to confirm cessation of the heart beat in the transplanted heart. If cessation of the graft's heart beat was not confirmed the abdomen was surgically closed, and the graft was evaluated daily.

[4] = test system: Lewis X Brown Norway F1 hearts transplanted to Lewis recipients; experiment: Rat cardiac allograft model, Allograft Study 1 (summary across three studies); type: in vivo; settings: for absolute cardiac allograft survival (last day of graft survival): vehicle day +9
Excerpt: Allograft rejection is defined as the expression of an immune reaction of the recipient, against foreign antigens of the transplanted tissue. This reaction is mediated by T lymphocytes. Cell adhesion events are of critical importance in the T-cell recognition of alloantigens, the trafficking of recipient immune and inflammatory cells into the graft, and the execution of cell-mediated effector functions. […] This beneficial therapeutic effect correlates with decreased infiltration by α4β1 positive cells, deposition of CS1-FN, and endothelial staining for VCAM-1, as determined by immunohistology/RNAse protection assay.
To further evaluate the therapeutic potential of α4β1 targeted therapy in transplantation rejection, three studies were conducted in a well-defined rat cardiac transplant model. The following report summarizes the data across all three studies.

rat cardiac allografts [5] = experiment: Rat cardiac allograft study, Allograft Study 5, dose response (Table 23); type: in vivo

Structure (SMILES): Cc1ccc(S(=O)(=O)N2CCC[C@H]2C(=O)N[C@@H](Cc2ccc(OC(=O)N3CCN(CCO)CC3)cc2)C(=O)OC(C)(C)C)cc1
- melting point: 158 to 160 °C

Structure (SMILES): CC(C)OC(=O)[C@H](Cc1ccc(OC(=O)N(C)C)cc1)NC(=O)[C@H]1N(S(=O)(=O)c2cnn(C)c2)CSC1(C)C
- allograft acceptance compared with GG5/3 (rat cardiac allografts [1]): significantly prolong allograft acceptance beyond the level obtain with GG5/3
- graft survival rate on day +19 (rat cardiac allografts [1]): Fifty percent or greater
- longest surviving graft (one graft) (rat cardiac allografts [1]): 37 days
- number of surviving grafts within each group (rat cardiac allografts [2]; Day 0): 6
- percent of surviving grafts within a group (rat cardiac allografts [2]; Day 0): 100%
- number of surviving grafts within each group (rat cardiac allografts [2]; Day 1): 6
- percent of surviving grafts within a group (rat cardiac allografts [2]; Day 1): 100%
- number of surviving grafts within each group (rat cardiac allografts [2]; Day 2): 6
- percent of surviving grafts within a group (rat cardiac allografts [2]; Day 2): 100%
- number of surviving grafts within each group (rat cardiac allografts [2]; Day 3): 6
- percent of surviving grafts within a group (rat cardiac allografts [2]; Day 3): 100%
- number of surviving grafts within each group (rat cardiac allografts [2]; Day 4): 6
- percent of surviving grafts within a group (rat cardiac allografts [2]; Day 4): 100%
- number of surviving grafts within each group (rat cardiac allografts [2]; Day 5): 6
- percent of surviving grafts within a group (rat cardiac allografts [2]; Day 5): 100%
- number of surviving grafts within each group (rat cardiac allografts [2]; Day 6): 6
- percent of surviving grafts within a group (rat cardiac allografts [2]; Day 6): 100%
- number of surviving grafts within each group (rat cardiac allografts [2]; Day 7): 6
- percent of surviving grafts within a group (rat cardiac allografts [2]; Day 7): 100%
- number of surviving grafts within each group (rat cardiac allografts [2]; Day 8): 6
- percent of surviving grafts within a group (rat cardiac allografts [2]; Day 8): 100%
- number of surviving grafts within each group (rat cardiac allografts [2]; Day 9): 4
- percent of surviving grafts within a group (rat cardiac allografts [2]; Day 9): 67%
- number of surviving grafts within each group (rat cardiac allografts [2]; Day 10): 4
- percent of surviving grafts within a group (rat cardiac allografts [2]; Day 10): 67%
- number of surviving grafts within each group (rat cardiac allografts [2]; Day 11): 3
- percent of surviving grafts within a group (rat cardiac allografts [2]; Day 11): 50%
- number of surviving grafts within each group (rat cardiac allografts [2]; Day 12): 3
- percent of surviving grafts within a group (rat cardiac allografts [2]; Day 12): 50%
- number of surviving grafts within each group (rat cardiac allografts [2]; Day 13): 1
- percent of surviving grafts within a group (rat cardiac allografts [2]; Day 13): 16%
- number of surviving grafts within each group (rat cardiac allografts [2]; Day 14): 1
- percent of surviving grafts within a group (rat cardiac allografts [2]; Day 14): 16%
- number of surviving grafts within each group (rat cardiac allografts [2]; Day 15): 1
- percent of surviving grafts within a group (rat cardiac allografts [2]; Day 15): 16%
- number of surviving grafts within each group (rat cardiac allografts [2]; Day 16): 1
- percent of surviving grafts within a group (rat cardiac allografts [2]; Day 16): 16%
- number of surviving grafts within each group (rat cardiac allografts [2]; Day 17): 0
- percent of surviving grafts within a group (rat cardiac allografts [2]; Day 17): 0%
- number of surviving grafts within each group (rat cardiac allografts [2]; Day 18): 0
- percent of surviving grafts within a group (rat cardiac allografts [2]; Day 18): 0%
- number of surviving grafts within each group (rat cardiac allografts [2]; Day 19): 0
- percent of surviving grafts within a group (rat cardiac allografts [2]; Day 19): 0%
- graft acceptance out to day (rat cardiac allografts [2]; compound 30 mg/kg s.c. every 12 h, day -2 to +10, GG5/3 3 mg/kg s.c. day 0, +3, +7, +10): 16 days
- number of surviving grafts within each group (rat cardiac allografts [3]; Day 0): 6
- number of surviving grafts within each group (rat cardiac allografts [3]; Day 1): 6
- number of surviving grafts within each group (rat cardiac allografts [3]; Day 2): 6
- number of surviving grafts within each group (rat cardiac allografts [3]; Day 3): 6
- number of surviving grafts within each group (rat cardiac allografts [3]; Day 4): 6
- number of surviving grafts within each group (rat cardiac allografts [3]; Day 5): 6
- number of surviving grafts within each group (rat cardiac allografts [3]; Day 6): 6
- number of surviving grafts within each group (rat cardiac allografts [3]; Day 7): 6
- number of surviving grafts within each group (rat cardiac allografts [3]; Day 8): 6
- number of surviving grafts within each group (rat cardiac allografts [3]; Day 9): 6
- number of surviving grafts within each group (rat cardiac allografts [3]; Day 10): 5
- number of surviving grafts within each group (rat cardiac allografts [3]; Day 11): 3
- number of surviving grafts within each group (rat cardiac allografts [3]; Day 12): 3
- number of surviving grafts within each group (rat cardiac allografts [3]; Day 13): 2
- number of surviving grafts within each group (rat cardiac allografts [3]; Day 14): 1
- number of surviving grafts within each group (rat cardiac allografts [3]; Day 15): 1
- number of surviving grafts within each group (rat cardiac allografts [3]; Day 16): 0
- graft survival (in words) (rat cardiac allografts [3]; compounds 30 mg/kg s.c. every 12 h, GG5/3 3 mg/kg s.c. day 0, +3, +7, +10): significant graft survival, resembling the results obtained from the GG5/3 group
- absolute cardiac allograft survival (last day of graft survival) [4]: 37 day

Structure (SMILES): CC(C)OC(=O)[C@H](Cc1ccc(OC(=O)N2CCN(C)CC2)cc1)NC(=O)[C@H]1N(S(=O)(=O)c2cccnc2)CSC1(C)C [Example 379]
- day rejection begins (rat cardiac allografts [5]; 3 mg/kg s.c. every 12 h): 7 days
- day rejection is completed (rat cardiac allografts [5]; 3 mg/kg s.c. every 12 h): ≤ 10 days
- protection against graft rejection (rat cardiac allografts [5]; 3 mg/kg s.c. every 12 h): did not provide any protection against graft rejection
- day rejection begins (rat cardiac allografts [5]; 10 mg/kg s.c. every 12 h): 8 days
- graft survival rate (rat cardiac allografts [5]; 10 mg/kg s.c. every 12 h, by day +22): 20%
- graft acceptance (in words) (rat cardiac allografts [5]; 30 mg/kg s.c. every 12 h): prolonged graft acceptance
- graft survival rate (rat cardiac allografts [5]; 30 mg/kg s.c. every 12 h, day +22, study still in progress): 83%
- allograft acceptance compared with GG5/3 (rat cardiac allografts [1]): significantly prolong allograft acceptance beyond the level obtain with GG5/3
- graft survival rate on day +19 (rat cardiac allografts [1]): Fifty percent or greater
- longest surviving graft (one graft) (rat cardiac allografts [1]): 41 days
- graft survival rate on day +14 [4]: 66%
- graft survival rate out to day +30 [4]: 33%
- absolute cardiac allograft survival (last day of graft survival) [4]: 41 day
